Results: patent US9855257B2, “4-alkynyl imidazole derivative and medicine comprising same as active ingredient” (KAKEN PHARMACEUTICAL CO., LTD., priority 2013, dated 2018)

Tests used:
rat EP4 receptor = molecular target: T1, rat EP4 receptor (Rattus norvegicus, UniProt P43114); experiment: Rat EP4 receptor antagonistic action by the reporter assay method; format: cell-based; settings: COS-7 cells expressing rat EP4 receptor, CRE-LUC reporter, PGE2 1×10^−8 mol/L; geometric mean of three cases; read-out: Intensity of EP4 Receptor Antagonistic Activity IC50
T1 construct: its translated region was integrated into the expression vector pShooter (Invitrogen); expressed in transfected cells; host or cells: COS-7 cells (Cercopithecus aethiops kidney), transiently co-transfected with ratEP4-pShooter and a CRE-LUC reporter vector
Procedure: Test for Evaluating the Rat EP4 Receptor Antagonistic Action by the Reporter Assay Method
The first step was the cloning of the rat EP4 receptor. Total RNA was prepared from the kidney extracted from rats. With the total RNA used as a template, the rat EP4 receptor gene was cloned by RT-PCR and its translated region was integrated into the expression vector pShooter (Invitrogen) to prepare a rat EP4 receptor expressing vector (ratEP4-pShooter).
In the next step, rat EP4 receptor expressing cells for use in the reporter assay were prepared. COS-7 cells (derived from the kidney of Cercopithecus aethiops) were cultured in Dulbecco's Modified Eagle Medium (DMEM) (supplemented with 10% fetal bovine serum) in a 75-cm^2 cell culture flask. After the cells proliferated to a subconfluent state, the medium was removed and rinsed with phosphate buffered physiological saline (PBS). Trypsin-EDTA and a growth medium were used to recover the cells, which were then centrifuged. The supernatant was removed and the cells were suspended in DMEM. The cell suspension was seeded on a 96-well plate at a density of 2×10^4 cells/100 μL/well and cultured. The DMEM was mixed with Plus reagent, Lipofectamine 2000, the rat EP4 receptor expressing vector (ratEP4-pShooter) and a CRE-LUC reporter vector (CLONTECH) to prepare a transfection solution. Three hours after the seeding of the cells, 50 μL of the medium was removed and 50 μL/well of the transfection solution was added, followed by culture overnight. Negative control cells were prepared using pShooter in place of the receptor expressing vector. The cells were seeded on a 96-well plate for reporter assay and cultured.
The medium on the 96-well plate was removed and a test compound was added in an amount of 50 μL/well. After ca. 30-min culture, a PGE2 solution (2×10^−8 mol/L) was added in an amount of 50 μL/well (final concentration of PGE2: 1×10^−8 mol/L). As a PGE2-free control, there were provided wells to which a test medium had been added in an amount of 50 μL/well. About three hours later, the medium was removed and reporter assay was performed in accordance with the protocol accompanying the Steady-Glo Luciferase Assay System kit. Luminous intensity was measured with a microplate reader (Fusion-FPα, PerkinElmer) and EP4 receptor antagonistic activity (%) was determined by the following calculation formula: EP4 receptor antagonistic activity (%)=[1−(RLU(A,X)−RLU(0))/(RLU(PGE2)−RLU(0))]×100 RLU(A,X): Luminous intensity expressed in relative luminescence units (RLU) for the case where the test compound (A) X (mol/L) and PGE2 10^−8 mol/L were both added; RLU(PGE2): Luminous intensity for the case where only PGE2 10^−8 mol/L was added; RLU(0): Luminous intensity for the case where neither test compound nor PGE2 was added.
In addition, a dose-response curve was plotted from the EP4 receptor antagonistic activities at varying concentrations of each test compound and using the following approximation formula, the IC50 (the concentration of the test compound required to inhibit the PGE2 inducing activity by 50%) was calculated to determine the intensity of the compound's EP4 receptor antagonistic activity. The results are shown in Table 2: Y=Bottom+(Top−Bottom)/{1+10^(Log IC50−Log X)} Bottom: 0 Top: 100 X: Concentration of the test compound (mol/L) Y: EP4 receptor antagonistic activity (%)

[1] = test system: Carrageenin Induced Paw Edema in Rats; experiment: Anti-inflammatory effect on carrageenin induced paw edema in rats; format: in vivo, rat; settings: Wistar male rats, oral 10 mg/5 mL/kg one hour before carrageenin, paw volume four hours after treatment; means of 5˜8 cases
Procedure: Test for Evaluating the Anti-Inflammatory Effect on Carrageenin Induced Paw Edema in Rats
The animals were Wistar male rats (7-week old). The paw volume of the right hind leg was measured with a paw volume meter (PLETHYSMOMETER, Ugo Basile Model 7141 or 7150). One hour after orally administering a test compound at a dose of 10 mg/5 mL/kg, a carrageenin treatment group was given a 1 w/v % carrageenin solution and a non-treatment group given distilled water, each administered subcutaneously to the footpad of the right hind leg at a dose of 0.1 mL. Four hours after the treatment with carrageenin (or distilled water), the paw volume was measured and the change in paw volume from the pre-treatment value was calculated. The anti-inflammatory effect of the test compound was confirmed using the percent paw edema suppression (see below) as an indicator. In the present experimental models, Cerecoxib (COX inhibitor already available on the market as an anti-inflammatory/analgesic agent) was used as a positive control.

[2] = test system: Carrageenin Induced Hyperalgesia in Rats; experiment: Analgesic effect on carrageenin induced hyperalgesia in rats; format: in vivo; settings: Rattus norvegicus, 2 h; SD male rats, oral 10 mg/5 mL/kg six hours after carrageenin, nociceptive threshold (Randall-Selitto) two hours after administration; 5˜7 cases; read-out: Percent Effectiveness
Procedure: Test for Evaluating Analgesic Effect on Carrageenin Induced Hyperalgesia in Rats
The animals were SD male rats (5-week old). Before treatment with carrageenin (or distilled water), the rats were measured for nociceptive thresholds in their right hind leg by the Randall-Selitto method and divided into a carrageenin treatment group and a non-treatment group to provide uniformity in nociceptive threshold. The carrageenin treatment group was given a 1 w/v % carrageenin solution and the non-treatment group given distilled water, each administered subcutaneously to the footpad of the right hind leg at a dose of 0.1 mL. Five hours after the treatment, the nociceptive thresholds were measured and the individuals with decreased thresholds were selected and grouped such that there was no inter-group difference in threshold. Six hours after the treatment, each test compound was orally administered at a dose of 10 mg/5 mL/kg. The control group was administered 0.5% methylcellulose. Two hours after the administration of the test compound (8 hours after the treatment), the nociceptive threshold was measured. The animals in the test compound group that had nociceptive thresholds greater than [(the mean nociceptive threshold of the control group)+2×standard deviation] were found “effective animals” and the percent effectiveness of each compound was calculated.

[3] = test system: Adjuvant Induced Arthritis in Rats; experiment: Anti-inflammatory and analgesic effects on adjuvant induced arthritis in rats; format: in vivo, rat; set-up: Percent Effectiveness: scale not given: direction of the effect not stated beside the values; settings: Lewis male rats, oral 0.3 mg/kg once a day, day 9 to day 17 after adjuvant; for Percent paw edema suppression: measured at day 18, means of 8˜10 cases; for Percent Effectiveness: pain threshold at day 18, 8˜10 cases
Procedure: Test for Evaluating Anti-Inflammatory and Analgesic Effects on Adjuvant Induced Arthritis in Rats
The animals were Lewis male rats (6-week old). An adjuvant solution (2 mg/mL) was administered intradermally to the footpad of the left hind leg of each animal at a dose of 0.1 mL to create an arthritis model. Paw volume was measured with a paw volume meter (PLETHYSMOMETER, Ugo Basile Model 7141). For evaluation of pain thresholds, a probe fitted to the sensor site of Pressure Application Measurement (PAM, Ugo Basile Model 38500) was used to turn the foot sole of a rat upward (dorsiflexion) until it gave an indication of pain or discomfort (vocalization) and the load being applied was measured. Eight days after the treatment with the adjuvant, the paw volume and pain threshold of each treated foot were measured and the animals were grouped for oral administration of each test compound (0.3 mg/kg) which was performed for nine days on a once-a-day schedule starting at day 9 and ending at day 17 after the treatment. At day 18 after the treatment, the paw volume and pain threshold of each […] foot were measured.
The anti-inflammatory effect of the test compound was confirmed using the percent paw edema suppression as an indicator. Percent paw edema suppression (%)=[(paw volume change in the control group−paw volume in each treatment group)/(paw volume change in the control group−paw volume change in the non-treatment group)]×100
As for the analgesic effect, the animals in the test compound group that had nociceptive thresholds greater than [(the mean nociceptive threshold of the control group)+2×standard deviation] were found “effective animals” and the percent effectiveness of each compound was calculated.

[4] = test system: Monoiodoacetic Acid Induced Joint Pain in Rats; experiment: Analgesic effect on monoiodoacetic acid induced joint pain in rats; format: in vivo, rat; settings: SD male rats, oral 10 mg/kg three days after MIA treatment, measured two hours later with incapacitance tester
Procedure: Test for Evaluating Analgesic Effect on Monoiodoacetic Acid Induced Joint Pain in Rats
The animals were SD male rats (6 week-old). The right knee of each animal was treated intraarticularly with monoiodoacetic acid (MIA) to induce joint pain. Three days after the MIA treatment, a test compound (10 mg/kg) was administered orally and two hours later, the loads on the right and left hind legs were measured with an incapacitance tester (Linton).

T1 sequence (P43114 whole entry): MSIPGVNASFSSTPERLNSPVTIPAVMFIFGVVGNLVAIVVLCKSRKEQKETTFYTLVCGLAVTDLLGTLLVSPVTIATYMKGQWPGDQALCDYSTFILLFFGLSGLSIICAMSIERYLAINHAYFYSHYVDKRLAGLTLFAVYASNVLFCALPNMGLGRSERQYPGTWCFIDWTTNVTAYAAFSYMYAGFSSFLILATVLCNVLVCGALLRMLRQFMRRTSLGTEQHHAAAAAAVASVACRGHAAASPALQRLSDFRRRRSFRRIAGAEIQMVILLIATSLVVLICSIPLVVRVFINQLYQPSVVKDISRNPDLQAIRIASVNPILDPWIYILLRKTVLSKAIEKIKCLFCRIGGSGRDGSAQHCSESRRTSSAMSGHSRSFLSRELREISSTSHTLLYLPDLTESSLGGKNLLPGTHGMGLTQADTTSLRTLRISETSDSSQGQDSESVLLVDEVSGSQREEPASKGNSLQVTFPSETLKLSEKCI

SMILES | IC50 (rat EP4 receptor) [nM] | Percent paw edema suppression [1] [%] | responders at 10 mg/kg [2] [%] | Percent paw edema suppression [3] [%] | Percent Effectiveness [3] [%] | suppression of right knee joint pain (ratio between the loads on the right and left hind legs) [4]
COC(C)(C)C#Cc1nc(Cl)n(Cc2ccc(C(F)(F)F)cc2)c1C(=O)NC[C@H]1CC[C@H](C(=O)O)CC1 [Compound 10, trans-4-({2-Chloro-4-(3-methoxy-3-methyl-1-butyn-1-yl)-1-[4-(trifluormethyl)benzyl]-1H-imidazole-5-carboxamido}methyl)cyclohexanecarboxylic acid] | 10.9 | 26 | 100 | 82 | 78 | suppression of right knee joint pain was confirmed
COC(C)(C)C#Cc1nc(Cl)n(CCOc2ccc(Cl)cc2)c1C(=O)NCC1CCC(C(=O)O)CC1 (stereo not drawn) [Compound 40] | 9.5 | 29 | 100 | – | – | –
COC(C)(C)C#Cc1nc(Cl)n(Cc2ccc(C(F)(F)F)cc2)c1C(=O)NC1(c2ccc(C(=O)O)cc2)CC1 [Compound 42, 4-(1-{2-Chloro-4-(3-methoxy-3-methyl-1-butyn-1-yl)-1-[4-(trifluoromethyl)benzyl]-1H-imidazole-5-carboxamido}cyclopropyl)benzoic acid] | 1.7 | 28 | 83 | 88 | 90 | suppression of right knee joint pain was confirmed
COC(C)(C)C#Cc1nc(C2CC2)n(CCOc2ccc(Cl)cc2)c1C(=O)NCc1ccc(C(=O)O)cc1 [Compound 47, 4-({1-[2-(4-Chlorophenoxy)ethyl]-2-cyclopropyl-4-(3-methoxy-3-methyl-1-butyn-1-yl)-1H-imidazole-5-carboxamido}methyl)benzoic acid] | 34.7 | 26 | 67 | – | – | –
CC(C)(O)C#Cc1nc(Cl)n(CCOc2ccc(Cl)cc2)c1C(=O)NCC1CCC(C(=O)O)CC1 (stereo not drawn) [Compound 39] | 35 | 22 | 100 | – | – | –
COC(C)(C)C#Cc1nc(Cl)n(Cc2ccc(C)cc2)c1C(=O)NC[C@H]1CC[C@H](C(=O)O)CC1 [Compound 22, trans-4-{[2-Chloro-4-(3-methoxy-3-methyl-1-butyn-1-yl)-1-(4-methylbenzyl)-1H-imidazole-5-carboxamido]methyl}cyclohexanecarboxylic acid] | 11.8 | 19 | 83 | 90 | 60 | suppression of right knee joint pain was confirmed
